Values after ≈ are worked out from the molar mass of the structure shown. Counter-ions that a name gives are not always drawn. Like-named read-outs stand apart in the source and are kept apart here.

Series [1] is described as follows: Kinetic solubility at pH 1 and 7. Type of series: physicochemical. To be noted: 1.0% DMSO; for solubility kinetic at 24 h: 23 °C, kinetic from dmso stock. As to the method:
Kinetic Solubility at pH 1 and 7
100-fold dilutions of each compound as DMSO stock solution were prepared by combining 3 μL of DMSO stock with 297 μL of the appropriate media in a Millipore solubility filter plate with 0.45 μM polycarbonate filter membrane using Hamilton Starlet liquid handling. The final DMSO Concentration is 1.0% and maximum theoretical compound concentration is […] (assuming stock concentration of 10 mM). The filter plate was sealed. Following 24-hour incubation at ambient temperature (22.2-23.6° C.), the samples were vacuum filtered, and the filtrates were collected in a 96 well polypropylene plate for analysis. The collection plate was sealed for analysis. Filtrates were injected into the nitrogen detector for quantification. The equimolar nitrogen response of the detector is calibrated using standards which span the dynamic range of the instrument from 0.08 to 4500 μg/ml nitrogen. The filtrates were quantified with respect to this calibration curve. The calculated solubility values are corrected for background nitrogen present in the DMSO, and the media used to prepare the samples

Series [2] in a line: Thermodynamic solubility in FaSSIF and FeSSIF. In kind it is physicochemical. To be noted: 20 hours, ambient temperature; for FaSSIF (pH 6.5): fasted-state simulated intestinal fluid pH 6.5; for FeSSIF (pH 5.0): fed-state simulated intestinal fluid pH 5.0. The procedure: Thermodynamic Solubility in FASSIF and FESSIF.
The aqueous solubility of compounds over a time of 20 hours was assessed. Solubility was determined at ambient temperature in buffered fasted-state simulated intestinal fluid (FaSSIF, pH 6.5) and buffered fed-state simulated intestinal fluid (FeSSIF, pH 5.0) prepared in-house using BioRelevant Simulated Intestinal Fluid (SIF) powder. Solids were added to FaSSIF or FeSSIF in 1.5-mL Eppendorf tubes, vortexed for 1 minute, then agitated for 20 hours in an Eppendorf ThermoMixer C. To determine concentration in solution, the suspensions were centrifuged for 10 min at 14,800 rpm and supernatants were diluted to a volume of 1 mL with 1:1 v/v acetonitrile:water. All diluted supernatants were analyzed by UPLC using a Waters Acquity UPLC with a PDA UV detector.

The nature of series [3]: In vivo cyno pharmacokinetics. To be noted: cynomolgus monkeys. As to the method:
In Vivo Cyno Pharmacokinetics Experiments
In vivo cyno pharmacokinetic experiments of compound Comparator B and Example 1 were assessed as follows.
Compound Comparator B hydrochloride salt was dosed as a 30 mg/kg suspension to cynomolgus monkeys (N=3) using the following formulation: 0.5% Methocel E4M Premium, 0.1% Tween-80, 99.4% Water. Compound Comparator B free base was dosed separately as a 12.5 mg/kg (50 mg-fixed) suspension to cynomolgus monkeys (N=3) using the following formulation: 0.5% Methocel E4M Premium, 0.1% Tween-80, 99.4% Water. Compound Example 1 was dosed separately as a 12.5 mg/kg (50 mg-fixed) suspension to cynomolgus monkeys (N=3) using the following formulation: 0.5% Methocel E4M Premium, 0.1% Tween-80, 99.4% Water. […] As is shown in Table 4, the AUC 0-24 h measured for Comparator B in plasma was higher after dosing with Example 1 than the value measured after dosing with an equivalent dose of Comparator B.

Series [4] has as its target T1, alkaline phosphatase (intestinal) (Bos taurus, UniProt P19111).
T1 construct: purchased MilliPore Sigma
Briefly: Alkaline phosphatase stability assay. Type of series: in vitro ADME. To be noted: 2 μM substrate, 100 ng/mL purified Bovine intestinal alkaline phosphatase, Tris buffer pH 7.8; read-out: ALP half life. As to the method: Alkaline Phosphatase Stability Assay
(§1) Alkaline phosphatase stability assays were carried out using purified Bovine intestinal alkaline phosphatase. Duplicate sets were performed with a TECAN liquid handler. Assay substrate concentrations were 2 μM. Purified Bovine intestinal alkaline phosphatase was acquired through MilliPore Sigma as a lyophilized powder. Reaction mixtures were prepared by the addition of 2 μL compound (400 μM stock solution in DMSO) into wells of a 96-well plate containing […] Tris buffer (100 mM, pH 7.8, 1 mM MgCl2 and 1 mM ZnCl2) with and without 100 ng/mL purified Bovine intestinal alkaline phosphatase. Samples were assessed at time points of 3, 30, 60, 120, 180 and 240 minutes. At each time point, 25 μL of the reaction mixtures were added into a 96-well plate containing 225 μL of quench solution (99% Acetonitrile with 1% Formic Acid and 100 nM Labetalol as internal standard). The plates containing the quench samples were then vortexed at 1100 RPM for 10 minutes and centrifuged at 4500 RPM for 20 minutes. 150 μL of the resulting supernatant was transferred into a 96-well plate containing 150 μL of water and vortexed at 1100 RPM for 3 minutes to mix.
(§2) Samples were analyzed with a Leap HTC Autosampler and a Dionex UltiMate 3000 HPLC system interfaced to a Thermo Q-Exactive mass spectrometer operating in positive ion electrospray mode. A Thermo Scientific Hypersil GOLD (1.9 μM particle size, 50×2.1 mm) HPLC column was used and mobile phase was pumped at 0.5 mL/min. Elution of analytes was achieved by a series of linear gradients of acetonitrile in water containing 0.1% (v/v) formic acid. Quantification was by analyte/internal standard peak area ratio (PAR).

A short description of series [5]: Assay buffer stability (Tris buffer without alkaline phosphatase). Type of series: physicochemical. To be noted: 2 μM substrate, Tris buffer pH 7.8 without alkaline phosphatase. The procedure: as §1, §2
Where [6] appears, read: pH 1, 24-hour incubation at ambient temperature.
[7] abbreviates: pH 7, 24-hour incubation at ambient temperature.
Setting [8] is: aqueous buffer, pH 7, 24-hour incubation at ambient temperature, read-out: Kinetic Solubility pH 7.
Where [9] appears, read: simulated gastric fluid, pH 1, 24-hour incubation at ambient temperature, read-out: Kinetic Solubility pH 1.

T1 sequence (P19111 20-506 limits assumed): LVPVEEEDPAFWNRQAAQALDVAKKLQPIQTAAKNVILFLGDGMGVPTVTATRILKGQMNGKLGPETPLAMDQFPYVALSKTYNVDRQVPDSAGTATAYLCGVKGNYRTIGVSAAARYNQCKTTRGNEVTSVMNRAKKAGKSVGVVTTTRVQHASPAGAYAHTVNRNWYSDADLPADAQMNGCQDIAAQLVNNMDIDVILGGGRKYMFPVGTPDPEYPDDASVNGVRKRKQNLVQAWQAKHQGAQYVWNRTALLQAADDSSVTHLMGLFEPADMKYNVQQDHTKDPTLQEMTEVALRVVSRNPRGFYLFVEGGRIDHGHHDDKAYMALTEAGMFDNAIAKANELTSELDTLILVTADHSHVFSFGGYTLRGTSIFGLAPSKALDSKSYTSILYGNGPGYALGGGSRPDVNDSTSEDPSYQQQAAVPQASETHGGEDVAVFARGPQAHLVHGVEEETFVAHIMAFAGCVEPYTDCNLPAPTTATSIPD

In the case of “5-(3-fluoro-8-((1S,2S)-2-(1-(2,2,2-trifluoroethyl)-1H-pyrazolo[3,4-b]pyridin-6-yl)cyclopropyl)imidazo[1,2-b]pyridazin-6-yl)pyrimidine-2,4(1H,3H)-dione [reference compound]”, in series [1] (setting [6]), the “Kinetic Solubility pH 1” value came out at 9 uM. The “Kinetic Solubility pH 7” value in series [1] (setting [7]) was 6 uM.

As for “5-(7-((1S,2S)-2-(1-(2,2,2-trifluoroethyl)-1H-indazol-6-yl)cyclopropyl)pyrazolo[1,5-a]pyrimidin-5-yl)pyrimidine-2,4(1H,3H)-dione [reference compound]”, in series [2], the “FaSSIF (pH 6.5)” value is listed as 0.5 ug/mL and the “FeSSIF (pH 5.0)” value is listed as 11.1 ug/mL. Also, the “Kinetic Solubility pH 1” value in series [1] (setting [6]) is given as 65 uM. In series [1] (setting [7]), the “Kinetic Solubility pH 7” value was found to be 7 uM.

Turning to “5-(8-((1S,2S)-2-(1-(2,2,2-trifluoroethyl)-1H-indazol-5-yl)cyclopropyl)imidazo[1,2-b]pyridazin-6-yl)pyrimidine-2,4(1H,3H)-dione [reference compound]”, in series [2], the “FaSSIF (pH 6.5)” value was 0.7 ug/mL and the “FeSSIF (pH 5.0)” value is on record as 12.4 ug/mL. In series [1] (setting [6]), the “Kinetic Solubility pH 1” value stood at 72 uM. The “Kinetic Solubility pH 7” value in series [1] (setting [7]) worked out at 10 uM.

Consider `CC1(C)CN(c2cc(-c3c[nH]c(=O)[nH]c3=O)nn3ccnc23)CC1(F)F` [B, 5-[8-(3,3-difluoro-4,4-dimethyl-pyrrolidin-1-yl)imidazo[1,2-b]pyridazin-6-yl]-1H-pyrimidine-2,4-dione, reference compound], for which, in series [2], the “FaSSIF (pH 6.5)” value is 12 ug/mL and the “FeSSIF (pH 5.0)” value was 33 ug/mL. For the same molecule, the solubility (kinetic) (commonly the concentration staying in solution when a stock, usually in DMSO, is diluted into the medium) at 24 h in series [1] (setting [8]) was determined as 5 µM (≈ 1.81 µg/mL). In series [1] (setting [9]), the solubility (kinetic) at 24 h was 95 µM (≈ 34.4 µg/mL).

Consider `CC1(C)CN(c2cc(-c3c[nH]c(=O)[nH]c3=O)nn3ccnc23)CC1(F)F` [Comparator B HCl salt, 5-[8-(3,3-difluoro-4,4-dimethyl-pyrrolidin-1-yl)imidazo[1,2-b]pyridazin-6-yl]-1H-pyrimidine-2,4-dione, reference compound], for which the AUC(0-t) in series [3] (cynomolgus monkey, 120 mg fixed (30 mg/kg) suspension, Comparator B measured in plasma, read-out: Comparator B AUC 0-24 h) stood at 33.2 µM·h.

As for `O=c1[nH]cc(-c2cc([C@H]3C[C@@H]3c3ccc4cnn(CC(F)(F)F)c4n3)c3ncc(F)n3n2)c(=O)[nH]1` [E, reference compound], the solubility (kinetic) at 24 h in series [1] (setting [8]) is 8 µM (≈ 3.89 µg/mL); in series [1] (setting [9]) it was 94 µM (≈ 45.7 µg/mL).

Take `CC1(C)CN(c2cc(-c3cn(COP(=O)(O)O)c(=O)[nH]c3=O)nn3ccnc23)CC1(F)F` [Example 1, (5-(8-(3,3-difluoro-4,4-dimethylpyrrolidin-1-yl)imidazo[1,2-b]pyridazin-6-yl)-2,4-dioxo-3,4-dihydropyrimidin-1(2H)-yl)methyl dihydrogen phosphate]: the “FaSSIF (pH 6.5)” value in series [2] is given as above 1000 ug/mL. Moreover, the “FeSSIF (pH 5.0)” value in series [2] was above 1000 ug/mL. Further, the solubility (kinetic) at 24 h in series [1] (setting [8]) and in series [1] (setting [9]) was above 100 µM each time. For the same molecule, the half-life – broadly, the time needed for the level to fall by half in the phase considered – at 2 µM in series [4] was 10 min; in series [5], above 1580 min. Besides, in series [3] (12.5 mg/kg (50 mg-fixed) suspension), the “AUC 0-24 h measured for Comparator B in plasma, compared with dosing an equivalent dose of Comparator B” value is reported as “higher”.

As to `O=c1[nH]c(=O)n(COP(=O)(O)O)cc1-c1cc([C@H]2C[C@@H]2c2ccc3cnn(CC(F)(F)F)c3c2)c2nccn2n1` [Example 2, (2,4-dioxo-5-(8-((1S,2S)-2-(1-(2,2,2-trifluoroethyl)-1H-indazol-6-yl)cyclopropyl)imidazo[1,2-b]pyridazin-6-yl)-3,4-dihydropyrimidin-1(2H)-yl)methyl dihydrogen phosphate], the values for the solubility (kinetic) at 24 h in series [1] (setting [8]) and in series [1] (setting [9]) were 89 µM and 3 µM, respectively. For the same molecule, in series [4], the half-life at 2 µM stood at 11 min.

On to `O=c1c(-c2cc([C@H]3C[C@@H]3c3ccc4cnn(CC(F)(F)F)c4c3)c3ncc(F)n3n2)cn(COP(=O)(O)O)c(=O)n1COP(=O)(O)O` [Example 3, (5-(3-fluoro-8-((1S,2S)-2-(1-(2,2,2-trifluoroethyl)-1H-indazol-6-yl)cyclopropyl)imidazo[1,2-b]pyridazin-6-yl)-2,4-dioxopyrimidine-1,3(2H,4H)-diyl)bis(methylene) bis(dihydrogen phosphate)], for which the solubility (kinetic) at 24 h in series [1] (setting [8]) was above 100 µM; in series [1] (setting [9]), 91 µM.

For the molecule `O=c1[nH]c(=O)n(COP(=O)(O)O)cc1-c1cc([C@H]2C[C@@H]2c2ccc3cnn(CC(F)(F)F)c3n2)c2ncc(F)n2n1` [Example 5, (5-(3-fluoro-8-((1S,2S)-2-(1-(2,2,2-trifluoroethyl)-1H-pyrazolo[3,4-b]pyridin-6-yl)cyclopropyl)imidazo[1,2-b]pyridazin-6-yl)-2,4-dioxo-3,4-dihydropyrimidin-1(2H)-yl)methyl dihydrogen phosphate], the figures for the kinetic solubility at 24 h in series [1] (setting [8]) and in series [1] (setting [9]) were 86 µM and 79 µM, respectively. For the same molecule, the half-life at 2 µM in series [4] is 14 min; in series [5], above 1580 min.

Regarding `O=c1[nH]c(=O)n(COP(=O)(O)O)cc1-c1cc([C@H]2C[C@@H]2c2ccc3cnn(CC(F)(F)F)c3c2)n2nccc2n1` [Example 6, (2,4-dioxo-5-(7-((1S,2S)-2-(1-(2,2,2-trifluoroethyl)-1H-indazol-6-yl)cyclopropyl)pyrazolo[1,5-a]pyrimidin-5-yl)-3,4-dihydropyrimidin-1(2H)-yl)methyl dihydrogen phosphate], the solubility (kinetic) at 24 h in series [1] (setting [8]) is 85 µM; in series [1] (setting [9]) it was 10 µM. The half-life at 2 µM is 8 min in series [4] and above 1580 min in series [5].

`O=c1c(-c2cc([C@H]3C[C@@H]3c3ccc4cnn(CC(F)(F)F)c4c3)n3nccc3n2)cn(COP(=O)(O)O)c(=O)n1COP(=O)(O)O` [Example 7, (2,4-dioxo-5-(7-((1S,2S)-2-(1-(2,2,2-trifluoroethyl)-1H-indazol-6-yl)cyclopropyl)pyrazolo[1,5-a]pyrimidin-5-yl)pyrimidine-1,3(2H,4H)-diyl)bis(methylene) bis(dihydrogen phosphate)]: the kinetic solubility at 24 h in series [1] (setting [8]) is above 100 µM; in series [1] (setting [9]) it was 89 µM.

The values are drawn from US11919869B2, “CD73 compounds” (Gilead Sciences, Inc., priority 2021, dated 2024).
